According to PubChem BioAssay (NCI):
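Five compound concentrations were applied to cells in 96-well plates for 48 hours; endpoints were derived by simple linear interpolation of the resulting dose-response curve. TGI: concentration producing complete growth inhibition.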

Legend:
Experiment in all cases: NCI tumour cell line growth inhibition, 48 h
[1] = system: NCI-H226 lung
[2] = system: MDA-MB-231 breast
[3] = system: ACHN renal
[4] = system: SN12C renal
[5] = system: K-562 leukemia
[6] = system: SK-MEL-5 melanoma
[7] = system: NCI-H522 lung
[8] = system: HT29 colon
[9] = system: RPMI-8226 leukemia
[10] = system: HOP-92 NSCLC
[11] = system: SK-OV-3 ovarian
[12] = system: SF-268 CNS
[13] = system: LOX IMVI melanoma
[14] = system: A498 renal
[15] = system: MOLT-4 leukemia
[16] = system: COLO 205 colon
[17] = system: UO-31 renal
[18] = system: PC-3 prostate
[19] = system: HCT-15 colon
[20] = system: UACC-257 melanoma

| SMILES | TGI [1] [µM] | TGI [2] [µM] | TGI [3] [µM] | TGI [4] [µM] | TGI [5] [µM] | TGI [6] [µM] | TGI [7] [µM] | TGI [8] [µM] | TGI [9] [µM] | TGI [10] [µM] | TGI [11] [µM] | TGI [12] [µM] | TGI [13] [µM] | TGI [14] [µM] | TGI [15] [µM] | TGI [16] [µM] | TGI [17] [µM] | TGI [18] [µM] | TGI [19] [µM] | TGI [20] [µM] |
| --- | --- | --- | --- | --- | --- | --- | --- | --- | --- | --- | --- | --- | --- | --- | --- | --- | --- | --- | --- | --- |
| C[C@]12CC[C@H](O)CC1=CC[C@@H]1[C@@H]2CC[C@]2(C)C(=O)[C@@H](N3CCOCC3)C[C@@H]12 | > 100 | > 100 | > 100 | > 100 | > 100 | > 100 | > 100 | > 100 | > 100 | > 100 | > 100 | > 100 | > 100 | > 100 | > 100 | > 100 | > 100 | > 100 | > 100 | > 100 |
| CNn1c(-c2ccccc2)n[nH]c1=O | > 100 | > 100 | > 100 | > 100 | > 100 | > 100 | > 100 | > 100 | > 100 | > 100 | > 100 | > 100 | > 100 | > 100 | > 100 | > 100 | > 100 | > 100 | > 100 | > 100 |
| CCCCCCCCCCCCCCCCCCNc1ccn(C2OC(COP(=O)(O)OCC3OC(n4cc(C)c(=O)[nH]c4=O)CC3O)C(O)C2O)c(=O)n1 (stereo not given) | 42.1 | 31.1 | 44.4 | 33.4 | 50.2 | 28.1 | 30.3 | 30.4 | 37.3 | 62.8 | 31.8 | 32.4 | 31.9 | 58.3 | 25.7 | 28.1 | 33.9 | 10.2 | 33.5 | 37.1 |
| O=c1[nH]c(-c2ccc3ccccc3c2)nc2ccccc12 | > 100 | > 100 | 80.2 | > 100 | > 100 | > 100 | > 100 | > 100 | > 100 | > 100 | > 100 | > 100 | > 100 | > 100 | > 100 | > 100 | 60.9 | > 100 | > 100 | > 100 |
| Nc1nc(N)c2[nH]c(CNc3ccc(C(=O)O)cc3)nc2n1 | > 100 | > 100 | > 100 | > 100 | > 100 | > 100 | > 100 | > 100 | > 100 | > 100 | > 100 | > 100 | > 100 | > 100 | > 100 | > 100 | > 100 | > 100 | > 100 | > 100 |
| Cc1cccc(-c2nc3ccc([N+](=O)[O-])cc3c(=O)o2)c1 | > 100 | > 100 | > 100 | > 100 | > 100 | > 100 | > 100 | > 100 | > 100 | 93 | > 100 | > 100 | > 100 | > 100 | > 100 | > 100 | > 100 | > 100 | > 100 | > 100 |
| Nc1nc(Cl)c(N)c(NC23CC4CC(CC(C4)C2)C3)n1 | 4.22 | 3.83 | 4.69 | 3.32 | 6.87 | 3.82 | 4.26 | 3.42 | 5.02 | > 19.9 | 17.4 | > 20.5 | > 100 | 8.13 | 4.81 | 3.13 | 3.55 | 2.97 | 13.3 | 7.16 |
| O=[N+]([O-])c1ccc(Cl)c(C=NC23CC4CC(CC(C4)C2)C3)c1 | > 10 | > 10 | > 10 | > 10 | > 10 | > 10 | > 10 | > 10 | > 10 | > 10 | > 10 | > 10 | > 10 | > 10 | > 10 | > 10 | > 10 | > 10 | > 10 | > 10 |
| Oc1ccc2ccccc2c1/C=C/c1ccc2c(Br)cc(Br)c(O)c2n1 | 20.3 | 23.4 | 18.1 | 20.9 | 22.5 | 14.5 | 14.3 | 41.4 | 41.4 | 35.5 | 28.9 | 21.8 | 23 | 18.6 | 15.4 | 21.9 | 17.1 | 18.9 | 17.5 | 22.9 |
| O=C(O)c1nc(-c2ccccc2)ncc1-c1nnnn1-c1ccccc1 | > 100 | > 100 | > 100 | > 100 | > 100 | > 100 | > 100 | > 100 | > 100 | > 100 | > 100 | > 100 | > 100 | > 100 | > 100 | > 100 | > 100 | > 100 | > 100 | > 100 |
| CCc1nc(N)nc(N)c1-c1ccc2nn(-c3ccccc3)[n+]([O-])c2c1 | 48.7 | 25.5 | 17.3 | 24.4 | 22.9 | 19.6 | 11.6 | 20.2 | 35.7 | 27 | > 69.3 | 31.5 | 17.7 | 29.2 | 32.5 | 22.3 | 35.2 | 23.4 | 18.8 | 24.2 |
| CC[N+](CC)(CCNCC(N)=O)CC(N)=O | > 10 | > 10 | > 10 | > 10 | > 10 | > 10 | > 10 | > 10 | > 10 | > 10 | > 10 | > 10 | > 10 | > 10 | > 10 | > 10 | > 10 | > 10 | > 10 | > 10 |
